Assay results reported in US12655365B2, “Low foam cleaning compositions” (ECOLAB USA INC., priority 2020, dated 2026).

How the values were obtained:
[1] = tested on: E. coli (ATCC 11229); experiment: Antimicrobial evaluation, log reduction of microbial population; format: cell-based; conditions: pH 7, 500 ppm hard water, 120° F., about 30 seconds contact
Method: The quaternary ammonium compounds were tested for antimicrobial efficacy against exemplary bacteria (E. coli and S. aureus) under different pH conditions. For this evaluation, various test solutions were prepared in 500 ppm hard water at a temperature of 120° F. The microbial population was contacted with the test composition for about 30 seconds. The microbial population was measured before and after the contacting step and the difference was taken to identify the log reduction. The quaternary ammonium compounds tested, their concentrations, and the corresponding log reductions are shown below in Table 2.

[2] = Foam evaluation (foam height); format: physicochemical; conditions: 1200 ppm solution in water; 120° F.; additive with quaternary ammonium compound
Method: The foaming properties of the quaternary ammonium compounds were evaluated and then tested for reduced foaming when traditional defoaming compounds were included. The foam height was determined with the following procedural steps: • 1. A 1200 ppm solution of the test composition was mixed in water. • 2. The foam height was measured immediately after mixing. • 3. The solution was agitated and the foam height was measured after 15 seconds. • 4. The solution was agitated and the solution was measured after another 45 seconds of agitation (60 seconds total since the solution was mixed). The temperature of the solution was at 120° F. for the duration of the test. As can been seen in FIGS. 1A and 1B, the various quaternary ammonium compounds tested provided significant foam height after mixing at after 15 seconds of agitation. The traditional defoamers had varying impacts on the foaming properties of the quaternary ammonium compounds.
The ability of the polycarboxylic acids and/or salts to control the foam of different quaternary ammonium compounds was also tested. The same procedural steps outlined above were followed. […].

`CCCCCCCCCC[N+](C)(C)CCCCCCCCCC.[Cl-]` [Bardac 2250, didecyl dimethyl ammonium chloride] showed a log reduction ([1]; 30 ppm) of 3.33, a log reduction ([1]; 40 ppm) of 5.02 and a log reduction ([1]; 50 ppm) of 6.71.
In the case of `CC(=O)O` [acetate], the “reduction to the foaming of quaternary ammonium compounds” value (“reduction to the foaming” below) [2] is reported as “did not”.
With `O=C([O-])c1ccccc1.[Na+]` [sodium benzoate] the “reduction to the foaming” value [2] was “did not”.
For `O=S(=O)([O-])[O-].[Na+].[Na+]` [sodium sulfate], the “reduction to the foaming” value [2] was “did not”.
